Measurements reported in PMC5947877 (Phytomedicine : international journal of phytotherapy and …, 2017).
“Also recorded” adds a separate entry of the source.

Tests used:
recombinant human MAO-B = biological target: T1, recombinant human MAO-B (Homo sapiens, UniProt P27338); assay: Fluorometric kynuramine deamination assay, MAO-B inhibition; format: biochemical
T1 sequence (P27338 1-520): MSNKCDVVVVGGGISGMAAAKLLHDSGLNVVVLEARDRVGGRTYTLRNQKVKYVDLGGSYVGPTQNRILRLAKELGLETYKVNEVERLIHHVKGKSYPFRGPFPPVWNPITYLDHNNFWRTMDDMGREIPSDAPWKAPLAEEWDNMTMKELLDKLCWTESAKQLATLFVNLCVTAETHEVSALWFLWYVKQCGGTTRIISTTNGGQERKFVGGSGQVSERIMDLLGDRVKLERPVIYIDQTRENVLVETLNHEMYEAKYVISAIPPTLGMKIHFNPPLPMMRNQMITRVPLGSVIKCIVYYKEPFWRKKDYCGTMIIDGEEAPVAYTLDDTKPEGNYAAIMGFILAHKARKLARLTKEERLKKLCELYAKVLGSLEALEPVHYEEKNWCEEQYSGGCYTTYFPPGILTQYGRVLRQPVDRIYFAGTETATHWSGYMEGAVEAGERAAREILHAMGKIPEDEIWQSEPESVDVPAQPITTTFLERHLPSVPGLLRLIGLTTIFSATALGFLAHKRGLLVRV

recombinant human MAO-A [1] = biological target: T2, recombinant human MAO-A (Homo sapiens, UniProt P21397); assay: Enzyme kinetics and mechanism of inhibition with MAO-A; format: biochemical; conditions: for Type of Inhibition, Monoamine oxidase-A: Lineweaver-Burk analysis, reversibility from dialysis
T2 sequence (P21397 1-527): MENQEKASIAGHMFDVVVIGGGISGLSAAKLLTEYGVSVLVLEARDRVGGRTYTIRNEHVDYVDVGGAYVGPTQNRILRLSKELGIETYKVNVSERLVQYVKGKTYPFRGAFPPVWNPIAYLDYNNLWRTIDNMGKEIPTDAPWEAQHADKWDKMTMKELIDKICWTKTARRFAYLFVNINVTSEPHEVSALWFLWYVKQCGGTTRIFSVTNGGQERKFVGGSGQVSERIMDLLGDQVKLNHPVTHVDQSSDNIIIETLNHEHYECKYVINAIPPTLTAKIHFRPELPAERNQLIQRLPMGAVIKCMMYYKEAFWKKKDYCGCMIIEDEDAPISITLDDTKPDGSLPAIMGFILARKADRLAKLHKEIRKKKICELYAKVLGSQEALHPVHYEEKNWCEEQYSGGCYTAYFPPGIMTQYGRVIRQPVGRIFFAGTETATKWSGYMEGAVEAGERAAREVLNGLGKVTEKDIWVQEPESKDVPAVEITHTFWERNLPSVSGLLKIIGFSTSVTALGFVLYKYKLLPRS

recombinant human MAO-A [2] = biological target: T2, recombinant human MAO-A; conditions: dialysis 14-16 h at 4 °C
recombinant human MAO-A [3] = biological target: T2, recombinant human MAO-A; assay: Fluorometric kynuramine deamination assay, MAO-A inhibition; format: biochemical; conditions: ratio of IC50 MAO-B / MAO-A

Row | Compound | IC50 (recombinant human MAO-B) | Ki (recombinant human MAO-A [1]) | Type of Inhibition, Monoamine oxidase-A (recombinant human MAO-A [1]) | Type of Inhibition, Monoamine oxidase-A (recombinant human MAO-A [1]; listed as myricetin) | nature of binding to MAO-A (recovery of activity after dialysis) (recombinant human MAO-A [2]) | preferential MAO-A inhibition over MAO-B (fold) (recombinant human MAO-A [3]) | Type of Inhibition, Monoamine oxidase-A (recombinant human MAO-A [1]; listed as quercetin)
1 | O=c1c(O)c(-c2cc(O)c(O)c(O)c2)oc2cc(O)cc(O)c12 [Myricetin, myricetin] | 59.3 ± 1.78 µM | 2.24 ± 0.25 µM | Mixed/Reversible | mixed-type | reversible binding; also recorded: reversible inhibition | – | –
2 | O=c1c(O)c(-c2ccc(O)c(O)c2)oc2cc(O)cc(O)c12 [Quercetin, quercetin] | 28.4 ± 5.41 µM | 0.29 ± 0.03 µM | Competitive/Reversible | – | reversible binding; also recorded: reversible inhibition | 18 fold | competitive
